Peptide text beside a SMILES is read from it.
Assays:
rat intestinal DPP-IV = molecular target: T1, rat intestinal DPP-IV (Rattus norvegicus, UniProt P14740); test: In vitro DPP-IV inhibitory activity of synthetic peptides; type: biochemical; conditions: rat intestinal DPP-IV 0.1 U/mL; 0.1 mol/L Tris-HCl pH 7.0; 20 min pre-incubation at 37 °C; glycine-proline-p-nitroanilide 6.4 mmol/L (5 μL); 20 min reaction at 37 °C; absorbance 405 nm; mean ± SD, three replicates; read-out: IC50 value for DPP-IV inhibition
T1 construct: 10 μL of rat intestinal DPP-IV (0.1 U/mL in the assay); from tissue; host or cells: rat intestine
Procedure: Selected synthetic peptides (Bio-Fab Research, Rome, Italy) were then tested for their DPP-IV-inhibitory activity as reported in Tagliazucchi et al.. Briefly, 145 μL of 0.1 mol/L Tris-HCl buffer (pH 7.0) were mixed with 10 μL of rat intestinal DPP-IV (0.1 U/mL in the assay) and 40 μL of synthetic peptides at different concentrations, in a 96-well plate. The reaction was started after 20 min of pre-incubation at 37 °C by the addition of 5 μL of 6.4 mmol/L glycine-proline-p-nitroanilide. After a further 20 min of reaction at 37 °C, the amount of released p-nitroanilide was measured by reading the absorbance at 405 nm in a microplate reader. Results were expressed as IC50 values (peptide concentration that inhibit the 50% of the enzymatic activity) by plotting the peptide concentration (base-10 logarithm) as a function of the enzyme inhibition percentage.
All data are reported as mean ± standard deviation (SD) for three replicates for each prepared sample. GraphPad Prism 6.0 (GraphPad Software, San Diego, CA, USA) was used for univariate analysis of variance (ANOVA) with Tukey post-hoc test. The differences were considered significant when p < 0.05.

[1] = tested on: Dipeptidyl peptidase IV (DPP-IV); conditions: Parmigiano Reggiano peptides, previous study; cited from earlier work
From the text: Table 1 Peptides with previously reported biological activity identified in in vitro-digested Pinto bean protein extract. | column: Bioactivity ^1 || The described approach was applied in a previous study on Parmigiano Reggiano samples allowing the selection of 6 candidates to be tested in vitro starting from a pool of 415 peptides identified by peptidomics techniques. […] The high inhibitory potency of SAPI was probably due to the combined presence of an A residue in second position and a P residue in third position. […] The PepSite2 server was used to predict the possible interaction between SAPI and the DPP-IV binding sites by analyzing the enzyme active site residues closer to the peptide amino ...

T1 sequence (P14740 whole entry): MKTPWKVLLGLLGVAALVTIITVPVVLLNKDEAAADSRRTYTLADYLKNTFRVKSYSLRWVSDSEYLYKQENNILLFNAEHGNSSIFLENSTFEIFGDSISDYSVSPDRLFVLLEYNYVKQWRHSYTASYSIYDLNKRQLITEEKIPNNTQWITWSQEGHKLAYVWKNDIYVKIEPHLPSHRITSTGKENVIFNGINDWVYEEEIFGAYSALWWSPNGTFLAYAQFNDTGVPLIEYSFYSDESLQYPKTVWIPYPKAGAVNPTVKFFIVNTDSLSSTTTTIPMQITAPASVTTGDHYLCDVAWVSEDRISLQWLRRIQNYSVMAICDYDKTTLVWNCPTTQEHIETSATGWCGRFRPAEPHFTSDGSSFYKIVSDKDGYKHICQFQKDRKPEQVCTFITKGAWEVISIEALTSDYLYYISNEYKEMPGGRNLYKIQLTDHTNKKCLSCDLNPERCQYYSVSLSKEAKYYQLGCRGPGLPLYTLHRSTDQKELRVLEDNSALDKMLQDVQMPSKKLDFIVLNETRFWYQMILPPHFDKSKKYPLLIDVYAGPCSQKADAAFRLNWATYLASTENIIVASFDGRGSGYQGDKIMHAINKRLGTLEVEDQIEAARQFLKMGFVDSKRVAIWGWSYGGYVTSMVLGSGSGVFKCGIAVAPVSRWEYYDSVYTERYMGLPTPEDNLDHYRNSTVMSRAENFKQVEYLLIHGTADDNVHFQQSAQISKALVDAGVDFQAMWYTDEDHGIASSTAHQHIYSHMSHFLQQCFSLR

| IC50 (rat intestinal DPP-IV) | Compound | DPP-IV inhibition (in words) [1] |
| --- | --- | --- |
| 480.6 ± 2.1 µM | CC(C)[C@H](NC(=O)[C@@H](N)Cc1ccccc1)C(=O)N1CCC[C@H]1C(=O)N[C@@H](Cc1c[nH]cn1)C(=O)O [FVPH] (H-FVPH-OH) |  |
| 57.7 µM | CC[C@H](C)[C@H](NC(=O)[C@@H]1CCCN1C(=O)[C@H](C)NC(=O)[C@@H](N)CO)C(=O)O [SAPI] (H-SAPI-OH) |  |
| 189 ± 1.5 µM | CC[C@H](C)[C@H](NC(=O)[C@@H](N)CO)C(=O)N1CCC[C@H]1C(=O)N[C@@H](CCCNC(=N)N)C(=O)O [SIPR] (H-SIPR-OH) |  |
|  | APFPE | novel potent DPP-IV inhibitor |

Reference: paper PMC8929122, “Application of a Combined Peptidomics and In Silico Approach for the Identification of Novel Dipeptidyl Peptidase-IV-Inhibitory Peptides in In Vitro Digested Pinto Bean Protein Extract” (Current Issues in Molecular Biology, 2021)
